Measured values reported in patent US20260022098A1, “BULLEYACONITINE A DERIVATIVE WITH ANALGESIC ACTIVITY, AND PREPARATION METHOD AND APPLICATION THEREOF” (priority 2023, published 2026).
Where two headings read alike, the source gives them in different places. Marks after values point to notes of the source that are not given here.

What was measured:
Kunming mice [1] = assay: Acute toxicity / median lethal dose (LD50) determination, subcutaneous injection; format: in vivo; design: key to Acute toxicity: if death occurred, (+) represented as positive; if no death occurred, (−) represented as negative; conditions: mice administered 20 mg/kg subcutaneously, presence of death within 24 h
Protocol: (§1) The experimental animals were Kunming mice (male:female=1:1), weighed 22+2 g, which were provided by Chengdu dossy experimental animals Co., ltd., China. The mice were kept in the animal room of the School of Life Science and Engineering, Southwest Jiaotong University, where the animal room was set at a temperature of 23±2° C., a humidity of […] and a photoperiod of 16:8 h (L:D). Before the experiment, the mice were freely fed for 2-3 days with water and feed to adapt to the new environment. Then, the mice were treated by water and food fasting for 12 h. 10 animals were allocated to each group to ensure that there are at least 6 sets of valid data in each group. The animal experiments were carried out in strict accordance with the national regulations on the management of experimental animals.
(§2) The compounds prepared in the examples provided herein (test sample set) and bulleyaconitine A (positive control set) were all dissolved with 0.1 mol/L HCl according to a molar ratio of 1:1, and then diluted with physiological saline to a concentration to be determined. Blank control was physiological saline containing 0.1 mol/L HCl. The animals in the control groups were subjected to the same treatment as those in experimental groups except that samples to be test were replaced with physiological saline.
(2) Median Lethal Dose (LD50) Determination
The sample to be tested was dissolved with 0.1 mol/L HCl according to the amount of the substance ratio of 1:1, and diluted with physiological saline according to the required concentration. 10 mice in each group were randomly selected, half of which were male and half of which were female, and were placed in independent cages. Each mouse was injected subcutaneously with different sample solutions to be tested according to a dose of 0.1 mL/10 g body weight. In the preliminary toxicity experiment, the measured concentration was 20 mg/kg, and then based on the survival rate of the experimental animals in the preliminary experiment, the sample to be tested was set to at least 5 groups with different concentration dose according to the proportional series. The survival rate of mice within 24 h was recorded. The obtained dose-survival rate data was input into the SPSS software (version 17.2), and the LD50 of the sample was calculated according to the Probit regression method.

RAW 264.7 cells = assay: MTT assay, viability of RAW 264.7 cells; format: cell-based; conditions: compound diluted to 30 mol/L (so in the source), 12 h
Protocol: The effect of the compound to be tested on viability of RAW 264.7 cells at a concentration of […] was assessed through MTT assay (Methylthiazolyldiphenyl-tetrazolium bromide assay), and the inhibition on NO release in the inflammatory response of LPS-induced RAW 264.7 cells at 30 µM was determined through Griess method. Specific methods were described as follows.
An MTT solution (5 mg/mL) was prepared with a PBS buffer, filter-sterilized through a 0.22 μm filter membrane, and stored protected from light at low temperature. Each compound was dissolved in DMSO to prepare a 50 mmol/L stock solution, and stored from light at low (frozen) temperature. The stock solution was diluted to 30 mol/L with DMEM (Dulbecco's modified Eagle's medium) containing 10% FBS (fetal bovine serum). RAW264.7 cells beyond third passage were added to a culture medium and gently pipetted to detach, forming a cell suspension. 10 μL of the cell suspension was applied onto a hemocytometer slide for counting, and cells were seeded into 96-well plates at a density of 6×10^3 cells per well with 100 μL of the cell suspension per well. After incubated at 37° C. with 5% CO2 for 24 h, supernatant was removed. A zero-adjustment group (CO group) received 100 μL of medium per well, the blank group (CK group) received 100 μL of DMSO (1/1000 dilution) per well, and the experimental groups received 100 μL of the test samples per well. After 12 h, supernatant was removed, and […] of MTT solution was added into each well at 120 μL per well. After incubated in COz at a constant temperature for 4 h, supernatant was removed, and DMSO was added into each well by 150 μL per well. The mixture was shaken at 50 r/min for 10 min and subjected to an absorbance test at 492 nm. Relative cell viability (x) was calculated through a formula as follows: relative cell viability (%)=(ODTest−ODCO)/(ODCK−ODCO)×100%.

Kunming mice [2] = assay: Analgesic activity by acetic acid-induced writhing method (writhing inhibition rate, ED50); format: in vivo; conditions: Mus musculus, sc, read-out: Analgesia rate (%) ± SEM
Protocol: as §1, §2
(1) Determination of Analgesic Activity Through an Acetic Acid-Induced Writhing Method
10 mice were randomly selected, male:female=1:1, were placed in independent cages. Each mouse was injected subcutaneously with the sample solution mentioned above at a dose of 0.1 mL/10 g body weight. After 15 min, a 0.7% acetic acid solution was intraperitoneally injected. A number of writhing reactions in each mouse within 15 minutes was recorded. The group that the mice were injected with physiological saline subcutaneously was the blank group; the group that the mice were injected with the sample to be tested was the experimental group; and the group that the mice were injected with bulleyaconitine A was the positive group. The analgesic activity was represented by a percentage of the reduced number of writhing compared to the blank group (writhing inhibition rate), which were specifically as follows: writhing inhibition rate (analgesic activity)=(average number of writhing times in the blank group-average number of writhing times in the experimental group)/average number of writhing times in the blank group×100%.
Median Effective Dose (ED50) Determination
The sample to be tested was dissolved with 0.1 mol/L HCl according to the amount of the substance ratio of 1:1, and diluted with physiological saline according to the proportional series to obtain at least 5 groups with different dose concentrations. The writhing inhibition rate of each dose group was tested according to the acetic acid-induced writhing method mentioned above. The obtained dose-writhing inhibition data was entered into the statistical product and service solutions (SPSS) software (version 17.2), and the ED50 of the sample to be tested was calculated through the Probit regression method.

[3] = dosing concentration 0.05 mg/kg, subcutaneous, acetic acid-induced writhing, mice

Row | SMILES | Acute toxicity (Kunming mice [1]) | RAW cell viability (RAW 264.7 cells) | inhibition in vivo at 0.05 mg/kg (Kunming mice [2]; [3]) | inhibition in vivo at 0.5 mg/kg (Kunming mice [2]; dosing concentration 0.5 mg/kg, subcutaneous, acetic acid-induced writhing, mice) | inhibition in vivo at 0.05 mg/kg (Kunming mice [2])
1 | CCO[C@]12C[C@H](OC)[C@@]3(OC(=O)c4cccnc4)CC(C1[C@H]3OC(=O)c1ccc(OC)cc1)[C@]13C4[C@@H](OC)C2[C@H]1N(CC)C[C@]4(COC)CC[C@@H]3OC (stereo partly drawn) [Compound 28] | − | 83.03 ± 4.69**^ % | 36.1 ± 2.1% |  | 
2 | CCO[C@]12C[C@H](OC)[C@@]3(OC(=O)C4CCCCC4)CC(C1[C@H]3OC(=O)c1ccc(OC)cc1)[C@]13C4[C@@H](OC)C2[C@H]1N(CC)C[C@]4(COC)CC[C@@H]3OC (stereo partly drawn) [Compound 14] | − | 13.36 ± 0.9***^ % | 40.3 ± 1.7% | 44.4 ± 2.1% | 
3 | C/C=C/C(=O)O[C@]12CC3C([C@H]1OC(=O)c1ccc(OC)cc1)[C@](OCC)(C[C@@H]2OC)C1[C@H](OC)C2[C@@]4(COC)CC[C@H](OC)[C@@]32[C@@H]1N(CC)C4 (stereo partly drawn) [Compound 86] | − |  |  |  | 22.8 ± 1.8%
4 | CCO[C@]12C[C@H](OC)[C@@]3(OC(=O)C(C)C)CC(C1[C@H]3OC(=O)C(C)C)[C@]13C4[C@@H](OC)C2[C@H]1N(CC)C[C@]4(COC)CC[C@@H]3OC (stereo partly drawn) [Compound 80] | − |  |  |  | 19.1 ± 2.1%
5 | CCO[C@]12C[C@H](OC)[C@@]3(OC(=O)C(C)Cl)CC(C1[C@H]3OC(=O)C(C)Cl)[C@]13C4[C@@H](OC)C2[C@H]1N(CC)C[C@]4(COC)CC[C@@H]3OC (stereo partly drawn) [Compound 7] | − |  |  |  | 22.8 ± 3.3%
6 | CCN1C[C@]2(COC)CC[C@H](OC)[C@@]34C5C[C@]6(OC(=O)c7ccc(F)cc7)[C@@H](OC)C[C@@](OC(C)=O)(C5[C@H]6OC(=O)c5ccc(OC)cc5)C([C@H](OC)C23)[C@@H]14 (stereo partly drawn) [Compound 61] | − |  |  |  | 34 ± 1.9%
7 | CCN1C[C@]2(COC)CC[C@H](OC)[C@@]34C5C[C@]6(OC(=O)c7ccccc7)[C@@H](OC)C[C@@](OC)(C5[C@H]6OC(=O)c5ccccc5)C([C@H](OC)C23)[C@@H]14 (stereo partly drawn) [Compound 55] | − |  |  |  | 11.7 ± 1.6%
8 | CCO[C@]12C[C@H](OC)[C@@]3(OC(=O)c4ccc(Cl)s4)CC(C1[C@H]3OC(=O)c1ccc(Cl)s1)[C@]13C4[C@@H](OC)C2[C@H]1N(CC)C[C@]4(COC)CC[C@@H]3OC (stereo partly drawn) [Compound 18] | − |  |  |  | 13.4 ± 0.6%
9 | CCN1C[C@]2(COC)CC[C@H](OC)[C@@]34C5C[C@]6(OC(=O)C7CCOCC7)[C@@H](OC)C[C@@](OC(C)=O)(C5[C@H]6OC(=O)c5ccc(OC)cc5)C([C@H](OC)C23)[C@@H]14 (stereo partly drawn) [Compound 25] | − |  |  |  | 23 ± 0.8%
10 | CCN1C[C@]2(COC)CC[C@H](OC)[C@@]34C5C[C@]6(OC(=O)C(C)C)[C@@H](OC)C[C@@](OC(C)=O)(C5[C@H]6OC(=O)c5ccc(OC)cc5)C([C@H](OC)C23)[C@@H]14 (stereo partly drawn) [Compound 82] | − |  |  |  | 33.3 ± 1.5%
11 | CCO[C@]12C[C@H](OC)[C@@]3(OC(=O)c4ccc(C)cc4)CC(C1[C@H]3OC(=O)c1ccc(C)cc1)[C@]13C4[C@@H](OC)C2[C@H]1N(CC)C[C@]4(COC)CC[C@@H]3OC (stereo partly drawn) [Compound 56] | − |  |  |  | 11.4 ± 2%
12 | CCO[C@]12C[C@H](OC)[C@@]3(OC(=O)c4ccc(Br)cc4)CC(C1[C@H]3OC(=O)c1ccc(Br)cc1)[C@]13C4[C@@H](OC)C2[C@H]1N(CC)C[C@]4(COC)CC[C@@H]3OC (stereo partly drawn) [Compound 64] | − |  |  |  | 22.4 ± 1.4%
13 | CCN1C[C@]2(COC)CC[C@H](OC)[C@@]34C5C[C@]6(OC(=O)c7ccc(Br)cc7)[C@@H](OC)C[C@@](OC(C)=O)(C5[C@H]6OC(=O)c5ccc(OC)cc5)C([C@H](OC)C23)[C@@H]14 (stereo partly drawn) [Compound 92] | − |  |  |  | 4.12 ± 1.7%
14 | CCN1C[C@]2(COC)CC[C@H](OC)[C@@]34C5C[C@]6(OC(C)=O)[C@@H](OC)C[C@@](OC(C)=O)(C5[C@H]6OC(=O)c5ccc(OC)cc5)C([C@H](OC)C23)[C@@H]14 (stereo partly drawn) [Compound 43] | − |  |  |  | 4.92 ± 1.5%
15 | CCN1C[C@]2(COC)CC[C@H](OC)[C@@]34C5C[C@]6(OC(=O)c7ccc(OC)cc7)[C@@H](OC)C[C@@](OC(C)=O)(C5[C@H]6OC(=O)c5ccc(OC)cc5)C([C@H](OC)C23)[C@@H]14 (stereo partly drawn) [Compound 9] | − |  |  |  | 33.5 ± 1.9%
16 | CCN1C[C@]2(COC)CC[C@H](OC)[C@@]34C5C[C@]6(OC(=O)c7cccs7)[C@@H](OC)C[C@@](OC(C)=O)(C5[C@H]6OC(=O)c5ccc(OC)cc5)C([C@H](OC)C23)[C@@H]14 (stereo partly drawn) [Compound 21] | − |  |  |  | 0%
17 | CCOc1ccc(C(=O)O[C@]23CC4C([C@H]2OC(=O)c2ccc(OC)cc2)[C@](OCC)(C[C@@H]3OC)C2[C@H](OC)C3[C@@]5(COC)CC[C@H](OC)[C@@]43[C@@H]2N(CC)C5)cc1 (stereo partly drawn) [Compound 36] | − |  |  |  | 13.6 ± 2.5%
18 | CCN1C[C@@]2(COC)C3[C@@H](OC)C4[C@@H]1[C@@]3(C1C[C@]3(O)[C@@H](OC)C[C@@]4(OC)C1[C@H]3O)[C@@H](OC)C[C@H]2O (stereo partly drawn) [Compound 3] | − |  |  |  | 9.78 ± 1.9%
19 | CCO[C@]12C[C@H](OC)[C@@]3(O)CC(C1[C@H]3OC(=O)c1ccc(OC)cc1)[C@]13C4[C@@H](OC)C2[C@H]1N(CC)C[C@]4(COC)CC[C@@H]3OC (stereo partly drawn) [Compound 2] | + |  |  |  | 41.1 ± 1.8%
20 | CCO[C@]12C[C@H](OC)[C@@]3(OC(=O)c4ccc(C)cc4)CC(C1[C@H]3OC(=O)c1ccc(OC)cc1)[C@]13C4[C@@H](OC)C2[C@H]1N(CC)C[C@]4(COC)CC[C@@H]3OC (stereo partly drawn) [Compound 57] | − |  |  |  | 5.39 ± 2%
21 | CCO[C@]12C[C@H](OC)[C@@]3(OC(=O)c4ccccc4Br)CC(C1[C@H]3OC(=O)c1ccccc1Br)[C@]13C4[C@@H](OC)C2[C@H]1N(CC)C[C@]4(COC)CC[C@@H]3OC (stereo partly drawn) [Compound 67] | − |  |  |  | 17.8 ± 1.9%
